Laboratory results: patent publication US11116774B2, “Modulators of toll-like receptors for the treatment of HIV” (Gilead Sciences, Inc., priority 2014, dated 2021)
Values joined by “and” are separate entries in the source; they are usually repeats but may differ in a detail not shown here. Identical values can stand only once.

How the values were obtained:
[1] = system: peripheral NK cells (CD3-CD8+ NKG2A+CD16+CD56+); test: Peripheral lymphocyte activation, CD69 by flow cytometry: NK cells (Example 206); format: in vivo, rhesus macaque
Text: During the course of treatment with the compound of Example 4 as described in Example 204, peripheral lymphocyte activation was monitored in the groups dosed with the compound of Example 4 or the dosing vehicle of Example 201 (placebo), by measuring the expression of the early activation marker CD69 on various lymphocyte subsets by flow cytometry methodology. This methodology was used to quantify the percentage of immune cell subsets expressing the early activation marker. Standard data acquisition techniques were employed on a flow cytometer and by the use of antibodies conjugated to fluorescent molecules where the antibodies recognize rhesus macaque cell surface proteins on various immune cell subsets. In animals dosed with the compound of Example 4, whole blood samples were collected for each dose at various time points both at pre- and post-administration of compound. Total PBMCs were stained in the whole blood samples using antibodies that were chosen to be reactive to rhesus CD3, CD4, CD8, NKG2A, CD16 and CD56, each conjugated to different fluorescent probes to delineate CD3+CD4+CD8− lymphocytes, CD3+CD4−CD8+ lymphocytes and CD3-CD8+ NKG2A+CD16+ CD56+ NK cells. The flow cytometry data presented herein are from animals treated with the compound of Example 4.

[2] = system: proviral SIV DNA; test: Proviral SIV DNA in PBMCs, lymph node and colon by qPCR (Example 205); format: in vivo, rhesus macaques
Text: A whole blood sample, an inguinal lymph node sample, and a colon pinch biopsy sample were taken from the animals dosed with the compound of Example 4 and from the animals dosed with the vehicle of Example 201 (placebo group) in the study described in Example 204. These samples were taken prior to initiation of dosing and two weeks after the last dose; all samples were taken while animals were on cART. Total DNA was isolated from each sample using commercially available blood and tissue DNA extraction kits. Proviral SIV DNA levels were measured by quantitative PCR (qPCR) using probe-primer sets specific to the SIV gag gene and normalization for cellular input by measuring the glyceraldehyde 3-phosphate dehydrogenase (GAPDH) gene levels. […] In one of the compound treated animals (166-08), there was only a noted decrease in the proviral DNA content in the PBMCs, a minor increase in lymph node, and a minor decrease in the colon. In the vehicle-dosed placebo control animals, however, there were slight to moderate increases in two of three animals in proviral SIV DNA in the PBMC and colon samples, and relatively stable levels in lymph node samples.

[3] = system: HIV in PBMCs from HIV-infected donors; human Interferon α/β receptor chain 2 blocked; test: HIV activation with and without IFNα/β receptor block (Example 212); format: cell-based; conditions: Example 49 10 nM to 10 uM with anti-IFNα/β receptor chain 2 mAb MMHAR-2 at 1:500; day 4; 4 donors; p<0.05
Description: PBMCs from HIV-infected donors on suppressive cART were isolated, as before, and treated with the compound of Example 49 (GS-9620) at the doses indicated (10 nM to 10 uM) in the presence or absence of a mouse monoclonal antibody (clone MMHAR-2) against the human Interferon α/β receptor chain 2 (PBL Assay Science, Piscataway, N.J., Cat #21385-1) used at 1:500 dilution. At day 4 after treatment, cell-free culture supernatant was collected and HIV viral RNA was quantitated using the AmliPrep/COBAS® TaqMan® assay. Fold HIV activation in PBMCs from two HIV-infected donors treated with the compound of Example 49 alone and in combination with the anti-IFNα/β mAB (IFNAR block) is depicted in FIG. 8.

[4] = system: cytokines and chemokines in PBMCs from HIV-infected donors; test: Induction of cytokines/chemokines ex vivo, Luminex (Example 211); format: cell-based, human; conditions: PBMC supernatant day 2
Description: PBMCs from HIV-infected donors on suppressive cART were isolated, as described previously, and immediately added to tissue culture plates pre-equilibrated at 37° C. with media containing DMSO or the compound of Example 49 (GS-9620) at concentrations from 0.1 nM or 10.0 uM. At day 2 after treatment, cell-free culture supernatants were collected and frozen at −80C for subsequent analysis. Frozen supernatants were thawed at room temperature, and the cytokines and chemokines indicated were quantitated with a custom multiplexed xMAP Luminex® assay following the manufacturer's instructions (Thermo Fisher Scientific Inc., Grand Island, N.Y., custom-designed kit).

SMILES: CCCCOc1nc(N)c2c(n1)N(Cc1ccc(CN3CCCC3)cc1)CC(=O)N2 [Example 4]
- mean maximum percent change in CD69 expression on NK cells ([1]; dose 0.1 mg/kg, any time point (rise by 24 to 72 hours post-dose), pre-dose range 89-95%): 6.5%
- mean maximum percent change in CD69 expression on NK cells ([1]; dose 0.2 mg/kg, pre-dose range 83-95%): 9.5%
- mean maximum percent change in CD69 expression on NK cells ([1]; first dose of 0.3 mg/kg, pre-dose range 84-95%): 8.3%
- mean maximum percent change in CD69 expression on NK cells ([1]; second dose of 0.3 mg/kg, pre-dose range 82-97%): 8.7%
- Proviral SIV DNA, PBMC, Pre ([2]; SIV+ rhesus on cART, prior to initiation of dosing, one line per animal): 150 copies/10^6 cells and 68 copies/10^6 cells and 160 copies/10^6 cells and 120 copies/10^6 cells
- Proviral SIV DNA, PBMC, Post ([2]; SIV+ rhesus on cART, two weeks after the last dose, one line per animal): 100 copies/10^6 cells and 34 copies/10^6 cells and 89 copies/10^6 cells and 3 copies/10^6 cells
- Proviral SIV DNA, Colon, Pre ([2]; colon pinch biopsy, on cART, prior to initiation of dosing, one line per animal): 230 copies/10^6 cells and 80 copies/10^6 cells and 150 copies/10^6 cells and 110 copies/10^6 cells
- Proviral SIV DNA, Colon, Post ([2]; colon pinch biopsy, on cART, two weeks after the last dose, one line per animal): 210 copies/10^6 cells and 3 copies/10^6 cells (3×)
- Proviral SIV DNA, Lymph node, Pre ([2]; inguinal lymph node, on cART, prior to initiation of dosing, one line per animal): 270 copies/10^6 cells and 31 copies/10^6 cells and 210 copies/10^6 cells and 130 copies/10^6 cells
- Proviral SIV DNA, Lymph node, Post ([2]; inguinal lymph node, on cART, two weeks after the last dose, one line per animal): 280 copies/10^6 cells and 3 copies/10^6 cells (2×) and 84 copies/10^6 cells
- change of proviral SIV DNA, pre- vs post-treatment, across PBMC, inguinal lymph node and colon ([2]; within each animal, on cART): clear decrease in proviral DNA content for three of four animals

SMILES: CCCCOc1nc(N)c2c(n1)N(Cc1cccc(CN3CCCC3)c1)CC(=O)N2 [Example 49]
- mean maximal reduction of fold HIV activation by IFNAR block [3]: 85%
- BAFF fold induced vs. DMSO control [4]: <2-fold
- I-TAC fold induced vs. DMSO control [4]: >100-fold
- IFNα fold induced vs. DMSO control [4]: >100-fold
- IFNβ fold induced vs. DMSO control [4]: <2-fold
- IFNω fold induced vs. DMSO control [4]: >100-fold
- IL-1 RA fold induced vs. DMSO control [4]: >100-fold
- IL-4 fold induced vs. DMSO control [4]: <2-fold
- IL-5 fold induced vs. DMSO control [4]: <2-fold
- IL-6 fold induced vs. DMSO control [4]: >100-fold
- IL-10 fold induced vs. DMSO control [4]: >100-fold
- IL-12 (p70) fold induced vs. DMSO control [4]: <2-fold
- IL-13 fold induced vs. DMSO control [4]: <2-fold
- IL-17 fold induced vs. DMSO control [4]: <2-fold
- IL-18 fold induced vs. DMSO control [4]: <2-fold
- IL-27 fold induced vs. DMSO control [4]: <2-fold
- IL-31 fold induced vs. DMSO control [4]: <2-fold
- IP-10 fold induced vs. DMSO control [4]: >100-fold
- MCP-1 fold induced vs. DMSO control [4]: >100-fold
- MIP-1α fold induced vs. DMSO control [4]: >100-fold
- MIP-1β fold induced vs. DMSO control [4]: >100-fold
- MMP-1 fold induced vs. DMSO control [4]: <2-fold
- SCD40L fold induced vs. DMSO control [4]: <2-fold
- TNFS10 fold induced vs. DMSO control [4]: <2-fold
